According to US5436231A, “Adenophostins” (Sankyo Company, Limited, priority 1991, dated 1995):

Experiments:
[1] = test system: endoplasmic reticulum (microsome) of rat cerebellum; assay: 45Ca++ releasing activity from the endoplasmic reticulum; type: biochemical; conditions: 1 minute after addition, 30° C., pH 7.2; for calcium ion released of that incorporated into the endoplasmic reticulum: compound at 10 nM
Method: (§1) Adenophostins A and B were characterized by their inhibitory activity on [^3 H]-InsP3 binding to rat cerebellar InsP3 receptors, and the ^45 Ca^++ releasing activity from the endoplasmic reticulum, which was prepared from rat cerebellum.
^45 Ca^++ Releasing activity from the endoplasmic reticulum
The ^45 Ca^++ releasing activity from the endoplasmic reticulum was assayed using the method reported by Supattapone et al. [Proc. Natl, Acad. Sci. USA 85, 8747-8750 (1988)] with slight modifications.
The endoplasmic reticulum (microsome) of rat cerebellum was suspended in 10 mM of a HEPES-KOH buffer (pH 7.2) containing 100 mM of potassium chloride, 2.5 mM of magnesium chloride, 1 mM of dithiothreitol (DTT), 10 mM of creatine phosphate, creatine kinase (10 units/ml), 2 μg/ml of oligomycin, 50 μM of calcium chloride containing 1 μCi/ml of ^45 Ca, and 0.12 mM of ethylene glycol bis(2-aminoethyl ether)-N,N,N',N'-tetraacetic acid (EGTA), and the protein concentration in the suspension was adjusted to 0.5 mg/ml. 1 mM of adenosine triphosphate magnesium salt was added to 1 ml of this suspension, and the mixture was incubated for 11 minutes at 30° C. in order to incorporate the ^45 Ca^++ into the endoplasmic reticulum. InsP3, adenophostin A or adenophostin B was then added to release the incorporated ^45 Ca^++ from the endoplasmic reticulum. 10 minutes after the addition of the adenosine triphosphate magnesium salt (1 minute before the addition of the adenophostins or InsP3), and then 12 minutes after the addition of the adenosine triphosphate magnesium salt (1 minute after the addition of the adenophostins or InsP3), 100 μl of the reaction solution was removed, and the sampled solution was filtered through a Milipore filter (HA, […], Product of Milipore) to collect the. endoplasmic reticulum on the filter. The filter was washed with 4 ml of a 10 mM HEPES-KOH buffer (pH 7.2) containing 100 mM of potassium chloride and 1 mM of EGTA, and the radioactivity on the filter was determined by the addition of 5 ml of Pico-flow (a trade name for a product of Packard Co.) agents.

[2] = biological target: T1, rat cerebellar InsP3 receptors (Rattus norvegicus, UniProt P29994); assay: Inhibitory activity on [3H]-InsP3 binding to InsP3 receptors; conditions: rat cerebellar membrane fraction; 10 nM [3H]-InsP3; 5 minutes, room temperature; pH 8.0; read-out: IC50 (concentration required to inhibit the binding of [3H]-InsP3 by 50%)
T1 construct: A rat cerebellar membrane fraction was homogenized; from tissue; host or cells: rat cerebellum, membrane fraction
Method: as §1
Inhibitory activity on [^3 -H]-InSP3 binding to InsP3 receptors
The inhibitory activity of [^3 H]-InsP3 binding was assayed according to the method of Worley et al. [J. Biol. Chem. 262, 12132-12136 (1987)].
A rat cerebellar membrane fraction was homogenized in 50 mM of Tris-HC1 (pH 8.0) and 1 mM of ethylenediaminetetraacetic acid, and the protein concentration in the homogenized material was adjusted to 0.6 mg/ml. 1 ml of this cerebellar homogenate was taken and 10 nM of [^3 H]-InsP3and either adenophostin A or adenophostin B were added to it. The mixture was incubated for 5 minutes at room temperature, and then centrifuged for 5 minutes at 12,000 rpm at a temperature of 4° C. The supernatant was removed and the precipitated cerebellar membrane fraction was dissolved in 5 ml of Pico-flow (a trade name for a product of Packard Co.) to determine its radioactivity. The bound [^3 H]-InsP3 was then determined.
IC50 indicates the concentration required to inhibit the binding of [^3 H]-InsP3 by 50%.

Solubility = type: physicochemical; conditions: for Solubility in lower alcohols: such as methanol or ethanol

T1 sequence (P29994 whole entry): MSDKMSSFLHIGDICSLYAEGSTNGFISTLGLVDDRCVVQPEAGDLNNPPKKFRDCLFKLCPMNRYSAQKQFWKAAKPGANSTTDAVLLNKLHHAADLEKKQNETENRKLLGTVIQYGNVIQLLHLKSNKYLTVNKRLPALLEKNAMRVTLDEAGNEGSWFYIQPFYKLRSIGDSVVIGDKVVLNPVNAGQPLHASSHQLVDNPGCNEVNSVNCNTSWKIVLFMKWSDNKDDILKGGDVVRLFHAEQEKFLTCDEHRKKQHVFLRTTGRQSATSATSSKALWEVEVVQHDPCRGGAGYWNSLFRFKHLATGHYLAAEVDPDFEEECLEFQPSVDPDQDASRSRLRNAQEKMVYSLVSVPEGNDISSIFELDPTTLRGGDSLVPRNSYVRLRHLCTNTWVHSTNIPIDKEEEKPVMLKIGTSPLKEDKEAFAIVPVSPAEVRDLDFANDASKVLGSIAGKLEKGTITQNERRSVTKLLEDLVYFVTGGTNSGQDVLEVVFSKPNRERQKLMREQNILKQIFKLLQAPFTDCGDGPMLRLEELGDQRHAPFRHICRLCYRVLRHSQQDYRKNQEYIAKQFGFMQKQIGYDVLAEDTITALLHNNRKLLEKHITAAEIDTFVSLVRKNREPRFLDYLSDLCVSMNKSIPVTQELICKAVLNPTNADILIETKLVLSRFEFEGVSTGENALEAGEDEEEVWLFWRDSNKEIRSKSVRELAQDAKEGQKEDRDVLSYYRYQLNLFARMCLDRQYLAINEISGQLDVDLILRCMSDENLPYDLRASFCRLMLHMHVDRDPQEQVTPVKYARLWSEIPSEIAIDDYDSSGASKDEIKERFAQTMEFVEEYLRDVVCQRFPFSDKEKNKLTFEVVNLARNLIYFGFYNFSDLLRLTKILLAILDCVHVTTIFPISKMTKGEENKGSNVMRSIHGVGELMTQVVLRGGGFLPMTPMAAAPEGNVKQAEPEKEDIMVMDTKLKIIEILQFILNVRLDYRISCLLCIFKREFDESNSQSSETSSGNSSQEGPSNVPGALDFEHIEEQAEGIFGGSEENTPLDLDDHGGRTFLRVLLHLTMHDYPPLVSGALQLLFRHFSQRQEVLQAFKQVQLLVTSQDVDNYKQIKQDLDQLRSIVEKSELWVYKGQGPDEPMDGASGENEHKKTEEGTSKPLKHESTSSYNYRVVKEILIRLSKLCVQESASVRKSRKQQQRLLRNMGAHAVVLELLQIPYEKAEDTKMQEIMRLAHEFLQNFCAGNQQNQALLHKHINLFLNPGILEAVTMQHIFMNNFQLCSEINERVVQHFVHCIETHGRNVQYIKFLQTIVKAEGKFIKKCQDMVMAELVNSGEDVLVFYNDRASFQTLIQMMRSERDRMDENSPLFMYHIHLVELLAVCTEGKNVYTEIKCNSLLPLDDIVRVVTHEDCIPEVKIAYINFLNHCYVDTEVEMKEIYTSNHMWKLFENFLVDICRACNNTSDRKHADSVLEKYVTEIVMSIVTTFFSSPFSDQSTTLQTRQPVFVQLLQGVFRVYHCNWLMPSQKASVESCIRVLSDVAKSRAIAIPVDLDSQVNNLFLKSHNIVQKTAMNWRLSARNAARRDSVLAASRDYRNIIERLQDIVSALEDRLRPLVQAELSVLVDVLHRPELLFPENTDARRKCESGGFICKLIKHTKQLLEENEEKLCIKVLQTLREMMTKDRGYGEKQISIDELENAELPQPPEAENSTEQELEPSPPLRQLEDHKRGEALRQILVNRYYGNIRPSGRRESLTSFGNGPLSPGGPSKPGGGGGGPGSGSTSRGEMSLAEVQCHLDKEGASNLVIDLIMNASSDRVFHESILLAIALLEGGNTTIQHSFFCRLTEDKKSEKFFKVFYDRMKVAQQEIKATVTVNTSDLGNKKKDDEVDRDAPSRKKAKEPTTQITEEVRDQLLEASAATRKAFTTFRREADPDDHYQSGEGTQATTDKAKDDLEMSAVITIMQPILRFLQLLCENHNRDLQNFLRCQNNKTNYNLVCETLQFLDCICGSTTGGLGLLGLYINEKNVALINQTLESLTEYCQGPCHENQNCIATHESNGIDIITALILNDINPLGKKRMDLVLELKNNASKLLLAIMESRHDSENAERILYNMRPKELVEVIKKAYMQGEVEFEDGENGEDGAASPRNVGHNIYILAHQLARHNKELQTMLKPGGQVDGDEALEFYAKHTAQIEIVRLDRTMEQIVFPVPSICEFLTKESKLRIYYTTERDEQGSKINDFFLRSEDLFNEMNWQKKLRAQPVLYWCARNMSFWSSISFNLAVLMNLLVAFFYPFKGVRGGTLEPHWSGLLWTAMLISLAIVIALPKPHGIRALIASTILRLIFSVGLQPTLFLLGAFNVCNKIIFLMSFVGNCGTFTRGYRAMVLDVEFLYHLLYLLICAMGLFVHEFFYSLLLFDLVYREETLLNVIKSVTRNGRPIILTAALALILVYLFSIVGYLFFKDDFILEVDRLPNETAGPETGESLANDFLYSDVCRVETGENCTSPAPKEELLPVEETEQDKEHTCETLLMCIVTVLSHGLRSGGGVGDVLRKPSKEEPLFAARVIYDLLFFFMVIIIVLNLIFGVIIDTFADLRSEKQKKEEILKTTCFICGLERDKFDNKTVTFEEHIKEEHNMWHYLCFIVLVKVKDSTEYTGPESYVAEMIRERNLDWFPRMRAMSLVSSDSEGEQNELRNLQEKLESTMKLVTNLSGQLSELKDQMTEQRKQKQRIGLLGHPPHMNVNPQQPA

Row | IC50 [2] | Solubility in acetone, ethyl acetate or chloroform (Solubility) | Solubility in lower alcohols (Solubility) | Solubility in water and dimethyl sulfoxide (Solubility) | SMILES | calcium ion released of that incorporated into the endoplasmic reticulum (adenophostin activities at 10 nM stated equal to that of InsP3) ([1]; InsP3 at 10 μM) | calcium ion released of that incorporated into the endoplasmic reticulum [1]
1 | – | – | – | – | O=P(O)(O)O[C@@H]1[C@H](O)[C@H](O)[C@@H](OP(=O)(O)O)[C@H](OP(=O)(O)O)[C@H]1O [InsP3, inositol 1,4,5-trisphosphate, reference compound] | 35% | –
2 | 6 nM | insoluble | slightly soluble | Soluble | Nc1ncnc2c1ncn2[C@@H]1O[C@H](CO)[C@@H](O[C@H]2O[C@H](CO)[C@@H](OP(=O)(O)O)[C@H](OP(=O)(O)O)[C@H]2O)[C@H]1OP(=O)(O)O [adenophostin A] | – | 35%
3 | 8 nM | insoluble | slightly soluble | Soluble | CC(=O)OC[C@H]1O[C@H](O[C@H]2[C@@H](OP(=O)(O)O)[C@H](n3cnc4c(N)ncnc43)O[C@@H]2CO)[C@H](O)[C@@H](OP(=O)(O)O)[C@@H]1OP(=O)(O)O [adenophostin B] | – | 35%
